# Laboratory results published in US11298561B2, “Method of treating multi-drug resistance biofilm using targeted laser and antibiotics” (priority 2013, dated 2022).
# Values joined by “and” are separate entries in the source; they are usually repeats but may differ in a detail not shown here. Equal entries are not always repeated. Where two headings read alike, the source gives them in different places.
# B1: papain: enzyme used to loosen S. aureus biofilms prior to CFU assay (protein, UniProt P00784 134-345, looked up)
# Papain: IPEYVDWRQKGAVTPVKNQGSCGSCWAFSAVVTIEGIIKIRTGNLNEYSEQELLDCDRRSYGCNGGYPWSALQLVAQYGIHYRNTYPYEGVQRYCRSREKGPYAAKTDGVRQVQPYNEGALLYSIANQPVSVVLEAAGKDFQLYRGGIFVGPCGNKVDHAVAAVGYGPNYILIKNSWGTGWGENGYIRIKRGTGNSYGVCGLYTSSFYPVKN
# Tests used:
# [1] = test system: planktonic MRSA SA5120 cultures; assay: CFU assay of planktonic MRSA SA5120 cultures; format: cell-based, Staphylococcus aureus; conditions: for reduction in viability of planktonic MRSA cultures (CFU): antibiotic alone, 24 h (vancomycin 100 μg/mL)
# Procedure: For planktonic bacteria, broth cultures of SA5120 in TSB and PA 60-65 in BHI were grown for 16-18 h at 37° C. on a shaker at 250 rpm. The cultures were diluted to an OD600 of 0.1 using TSB for SA5120 or BHI for PA 60-65 and incubated at 37° C. for ˜1.5 h to reach an OD600 of 0.3. […] The cell pellets were washed twice in PBS, re-suspended in 1 mL of PBS, serially diluted in PBS, and plated in triplicate on TSA plates. The plates were incubated overnight at 37° C., and the resulting colonies were enumerated and used to calculate CFUs/mL.
# [2] = test system: Staphylococcus epidermidis biofilm; conditions: ns-pulsed laser non-thermal shockwaves combined with 24-h gentamicin treatment; cited from earlier work
# MRSA SA5120 biofilms = format: cell-based, Staphylococcus aureus
# Procedure: (§1) Two MDR clinical wound isolates, namely, methicillin-resistant S. aureus (MRSA) SA5120 and P. aeruginosa PA 60-65, were received as gifts from a repository at the U.S. Army Institute of Surgical Research (JBSA-Fort Sam Houston, Tex.). Biofilms were established on 5-mm glass discs or in 96-well half-area glass-bottom plates that had been pre-treated for 24 h with 1 mg/mL of fibrinogen. Overnight cultures of SA5120 in tryptic soy broth (TSB) were diluted to an optical density at 600 nm (OD600) of 0.1 using TSB supplemented with 10% human plasma, added to empty wells of a 96-well glass-bottom culture plate or to wells containing 5-mm glass discs, and allowed to grow into biofilms for 24 h at 37° C. under static conditions. For PA 60-65, overnight cultures in brain heart infusion broth (BHI) were diluted 20-fold using 20% BHI in phosphate-buffered saline (PBS) supplemented with 0.2% glucose and 0.4% NaCl and grown to an OD600 of 0.5 at 37° C. with shaking at 250 rpm. The bacterial suspension was diluted to an OD600 of 0.01 in PBS, and 20 μL of inoculant was spotted onto 5-mm glass discs placed in 6-well tissue culture plates. Samples were incubated at room temperature for 2 h to allow cell attachment, rinsed in PBS, and then cultured in 20% BHI/0.2% glucose/0.4% NaCl in PBS for 72 h at 37° C. with shaking at 140 rpm. Biofilms were rinsed in PBS and transferred into 96-well glass-bottom plates for subsequent treatment.
# MRSA biofilms in 96-well glass-bottom plates or on 5-mm glass discs were pre-treated with increasing concentrations of tGNPs from 0-100 μg/mL in PBS for 2 h. This 2-h treatment duration was selected based upon results from comparison of the extent of biofilm dispersion caused by different tGNP incubation periods used in combination with laser irradiation (FIG. 9). Following the tGNP pre-treatment, unattached tGNPs were washed away using PBS, and 40 μL of PBS was added to the wells. Biofilms were then irradiated with increasing numbers of laser pulses from 0-100 pulses at 532 nm and a fluence of ˜1.0 J/cm^2 using an Nd:YAG laser system (8-ns pulse, 1 Hz; Quantel, Bozeman, Mont.) and an automated XY-gantry sample positioning system operated through LabVIEW software (National Instruments, Austin, Tex.). After exposure, samples were analyzed using confocal microscopy or colony forming unit (CFU) assays.
# Biofilms grown on glass discs were pre-treated with tGNPs or non-targeted GNPs at 70 μg/mL in PBS for 2 h (SA5120) or 1 h (PA 60-65). The 1-h pre-treatment period for PA 60-65 was selected based upon results from comparison of biofilm dispersion caused by various tGNP incubation times used in combination with laser irradiation (FIG. 10). Following the tGNP pre-treatment, samples were rinsed using PBS, and 40 μL of PBS was added to each well. Biofilms were then exposed to 50 laser pulses at 532 nm or sham exposed as described in Supplementary Materials. Biofilms treated with 50 laser pulses alone or PBS alone (controls) were also included. […] After treatment, samples were analyzed using confocal microscopy, CFU assays, or scanning electron microscopy (SEM).
# Biofilms on glass discs were pre-treated with tGNPs at 70 μg/mL in PBS for 2 h (SA5120) or 1 h (PA 60-65). Samples were rinsed with PBS, 40 μL of PBS was added to each well, and biofilms were then exposed to 50 laser pulses at 532 nm or sham exposed. Biofilms treated with 50 laser pulses alone or PBS alone were also included. […]
# [3] = test system: P. aeruginosa PA 60-65 biofilms; assay: CFU assay of P. aeruginosa PA 60-65 biofilms; format: cell-based, Pseudomonas aeruginosa; conditions: for reduction in P. aeruginosa biofilm viability (CFU): 24 h
# Procedure: as §1
# Biofilms grown on glass discs were pre-treated with tGNPs or non-targeted GNPs at 70 μg/mL in PBS for 2 h (SA5120) or 1 h (PA 60-65). The 1-h pre-treatment period for PA 60-65 was selected based upon results from comparison of biofilm dispersion caused by various tGNP incubation times used in combination with laser irradiation (FIG. 10). […] After treatment, samples were analyzed using confocal microscopy, CFU assays, or scanning electron microscopy (SEM).
# Biofilms on glass discs were pre-treated with tGNPs at 70 μg/mL in PBS for 2 h (SA5120) or 1 h (PA 60-65). […] Samples were incubated for 24 h at 37° C. and then analyzed using CFU assays or SEM. […]
# [4] = test system: planktonic P. aeruginosa PA 60-65 cultures; assay: CFU assay of planktonic P. aeruginosa PA 60-65 cultures; format: cell-based, Pseudomonas aeruginosa; conditions: amikacin 24 h (16-64 μg/mL)
# Procedure: For planktonic bacteria, broth cultures of SA5120 in TSB and PA 60-65 in BHI were grown for 16-18 h at 37° C. on a shaker at 250 rpm. The cultures were diluted to an OD600 of 0.1 using TSB for SA5120 or BHI for PA 60-65 and incubated at 37° C. for ˜1.5 h to reach an OD600 of 0.3. Samples were treated with antibiotics in triplicate in 5-mL tubes at 37° C. on a shaker at 250 rpm for 24 h, after which 1 mL of culture from each tube was transferred into a fresh tube and centrifuged to pellet the cells. The cell pellets were washed twice in PBS, re-suspended in 1 mL of PBS, serially diluted in PBS, and plated in triplicate on TSA plates. The plates were incubated overnight at 37° C., and the resulting colonies were enumerated and used to calculate CFUs/mL.
# [5] = GNP-targeted laser therapy followed by 24-h antibiotic treatment at 100 μg/mL
molecule,measurement,setting,value
gentamicin,reduction in viability of planktonic MRSA cultures (CFU),[1],~4 log
same,reduction in Staphylococcus epidermidis biofilm viability,[2],1 log
same,reduction in MRSA biofilm viability (CFU),MRSA SA5120 biofilms; [5],4 log
same,reduction in viable bacteria in MRSA biofilms,MRSA SA5120 biofilms; GNP-targeted laser therapy followed by 24-h gentamicin at 100 μg/mL,99.99%
same,reduction in MRSA biofilm viability (CFU),"MRSA SA5120 biofilms; antibiotic alone, 100 μg/mL, 24 h",1 log
"CN[C@H](CC(C)C)C(=O)N[C@H]1C(=O)N[C@@H](CC(N)=O)C(=O)N[C@H]2C(=O)N[C@H]3C(=O)N[C@H](C(=O)N[C@H](C(=O)O)c4cc(O)cc(O)c4-c4cc3ccc4O)[C@H](O)c3ccc(c(Cl)c3)Oc3cc2cc(c3O[C@@H]2O[C@H](CO)[C@@H](O)[C@H](O)[C@H]2O[C@H]2C[C@](C)(N)[C@H](O)[C@H](C)O2)Oc2ccc(cc2Cl)[C@H]1O [vancomycin, Vancomycin]",reduction in viability of planktonic MRSA cultures (CFU),[1],4 log and ~3 log
same,effect of GNP-targeted laser therapy on antibacterial activity of vancomycin against MRSA biofilms,MRSA SA5120 biofilms; 24-h vancomycin at 100 or 1000 μg/mL,enhanced the antibacterial activity
same,reduction in MRSA biofilm viability (CFU),MRSA SA5120 biofilms; [5],2 log
NCC[C@H](O)C(=O)N[C@@H]1C[C@H](N)[C@@H](O[C@H]2O[C@H](CN)[C@@H](O)[C@H](O)[C@H]2O)[C@H](O)[C@H]1O[C@H]1O[C@H](CO)[C@@H](O)[C@H](N)[C@H]1O [amikacin],reduction in P. aeruginosa biofilm viability (CFU),[3]; GNP-targeted laser therapy in combination with 8 μg/mL amikacin,5 log
same,effect of increasing amikacin from 8 to 16 μg/mL in the combination therapy,"[3]; P. aeruginosa biofilms, with GNP-targeted laser therapy",did not further reduce cell viability
same,reduction in P. aeruginosa biofilm viability (CFU),"[3]; amikacin alone, 8 μg/mL",~1 log
same,reduction in viability of planktonic P. aeruginosa cultures (CFU),[4],~4 log
B1,viability of planktonic MRSA cultures,"[1]; 100 μg/mL papain, 2 or 4 h at 37° C.",no reduction in cell viability
